Where two headings read alike, the source gives them in different places.
What was measured:
human P-gp [1] = molecular target: T1, human P-gp (Homo sapiens, UniProt P08183); conditions: 2 μM inhibitor, LLC-GA5-COL150, after last sampling (3 h)
[2] = clinical trials, cited from earlier work
human P-gp [3] = molecular target: T1, human P-gp
human P-gp [4] = molecular target: T1, human P-gp; experiment: Transcellular transport of PSC833 in LLC-PK1 and LLC-GA5-COL150 cells
P-gp = conditions: cited from earlier work
human P-gp [5] = molecular target: T1, human P-gp; conditions: for effect on [14C]doxorubicin transport: LLC-GA5-COL150

T1 sequence (P08183 whole entry): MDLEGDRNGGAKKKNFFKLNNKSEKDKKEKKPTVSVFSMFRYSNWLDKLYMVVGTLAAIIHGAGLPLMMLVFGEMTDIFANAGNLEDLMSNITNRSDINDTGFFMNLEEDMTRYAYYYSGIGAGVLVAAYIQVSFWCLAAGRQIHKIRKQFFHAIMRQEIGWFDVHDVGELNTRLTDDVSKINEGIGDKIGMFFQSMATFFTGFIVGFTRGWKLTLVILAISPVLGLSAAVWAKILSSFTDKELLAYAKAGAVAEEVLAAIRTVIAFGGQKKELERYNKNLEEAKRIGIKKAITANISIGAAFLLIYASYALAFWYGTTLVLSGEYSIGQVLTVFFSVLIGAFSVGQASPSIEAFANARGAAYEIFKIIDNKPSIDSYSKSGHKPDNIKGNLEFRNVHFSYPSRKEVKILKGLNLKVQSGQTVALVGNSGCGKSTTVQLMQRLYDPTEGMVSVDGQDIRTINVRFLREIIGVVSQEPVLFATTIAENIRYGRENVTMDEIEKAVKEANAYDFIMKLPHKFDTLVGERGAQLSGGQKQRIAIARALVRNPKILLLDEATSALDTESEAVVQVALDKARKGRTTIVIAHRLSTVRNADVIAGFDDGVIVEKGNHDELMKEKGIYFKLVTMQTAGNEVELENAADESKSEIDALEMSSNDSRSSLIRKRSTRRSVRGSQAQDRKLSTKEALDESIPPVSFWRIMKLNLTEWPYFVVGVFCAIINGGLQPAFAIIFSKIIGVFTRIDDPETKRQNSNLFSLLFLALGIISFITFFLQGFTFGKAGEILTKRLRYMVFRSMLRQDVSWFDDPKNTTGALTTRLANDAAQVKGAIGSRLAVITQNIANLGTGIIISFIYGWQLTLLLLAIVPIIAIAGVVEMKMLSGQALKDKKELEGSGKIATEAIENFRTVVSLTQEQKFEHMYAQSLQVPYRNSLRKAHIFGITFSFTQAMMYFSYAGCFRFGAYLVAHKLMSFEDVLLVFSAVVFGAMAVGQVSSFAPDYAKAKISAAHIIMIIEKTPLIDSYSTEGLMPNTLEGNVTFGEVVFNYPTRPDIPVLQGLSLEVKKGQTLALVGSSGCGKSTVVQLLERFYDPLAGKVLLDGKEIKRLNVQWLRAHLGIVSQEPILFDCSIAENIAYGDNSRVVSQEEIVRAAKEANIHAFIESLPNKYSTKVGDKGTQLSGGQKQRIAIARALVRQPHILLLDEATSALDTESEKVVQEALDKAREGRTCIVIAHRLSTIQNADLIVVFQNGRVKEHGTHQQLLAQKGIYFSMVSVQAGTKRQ

intracellular accumulation of [3H]vinblastine (human P-gp [1]): approached the control level
effect on [3H]vinblastine transport (human P-gp [3]; 2 μM inhibitor, LLC-GA5-COL150): almost completely inhibited
IC50 of PSC833 for vinblastine transport as % of that of Cs-A (human P-gp [3]; Table I): 20%
IC50 of PSC833 less than that of Cs-A for [3H]vinblastine transport (human P-gp [3]; ratio of IC50 values, Table I): about 5 fold
transported amount in LLC-GA5-COL150 cells compared with LLC-PK1 cells (human P-gp [4]; 10 μM PSC833, 3 and 6 h, 37C, HPLC-UV): approximately the same
transport by P-gp (human P-gp [4]; LLC-GA5-COL150 vs LLC-PK1 monolayers, 10 μM, both directions): not transported
effect on [14C]doxorubicin transport (human P-gp [5]; 0.1 μM inhibitor): little inhibitory effect
IC50 of PSC833 for [14C]doxorubicin transport as % of that of Cs-A (human P-gp [5]; Table I): 10%
effect on [14C]doxorubicin transport (human P-gp [5]; inhibitor concentrations greater than 0.5 μM): strong inhibitory effect
IC50 of PSC833 less than that of Cs-A for [14C]doxorubicin transport (human P-gp [5]; ratio of IC50 values, Table I): ~10 fold
Structure (SMILES): C/C=C/C[C@@H](C)C(=O)[C@H]1C(=O)N[C@@H](C(C)C)C(=O)N(C)CC(=O)N(C)[C@@H](CC(C)C)C(=O)N[C@@H](C(C)C)C(=O)N(C)[C@@H](CC(C)C)C(=O)N[C@@H](C)C(=O)N[C@H](C)C(=O)N(C)[C@@H](CC(C)C)C(=O)N(C)[C@@H](CC(C)C)C(=O)N(C)[C@@H](C(C)C)C(=O)N1C [PSC833, [3′‐keto‐Bmt1]‐Val2]‐cyclosporin]
concentrations at which the AUC of coadministered anticancer drugs increased [2]: 1000 to 2000 ng/mL
increase in the AUC of doxorubicin ([2]; combination therapy with PSC833 and doxorubicin): 20-199%
more effective than Cs-A in displacing the photoactivatable cyclosporin analogue (P-gp): approximately 2.5 fold

From PMC5921725 (Japanese Journal of Cancer Research : Gann, 1998)
